Laboratory results published in publication PMC5218480 (PLoS ONE, 2017).

Test system: MV-4-11 cells
Assay: Gene expression microarray analysis (Affymetrix PrimeView) and GSEA
Type: cell-based, human
Design: RFU PODN (11730768_x_at) / Fold change /veh PODN (11730768_x_at) / RFU LINC00158 (11744669_a_at) / Fold change /veh LINC00158 (11744669_a_at) / RFU DUSP10 (11751237_a_at) / Fold change /veh DUSP10 (11751237_a_at) / RFU ID3 (11757404_x_at) / Fold change /veh ID3 (11757404_x_at) / RFU PLEKHG5 (11737974_s_at) / Fold change /veh PLEKHG5 (11737974_s_at) / RFU LRRC4B (11730491_at) / Fold change /veh LRRC4B (11730491_at) / RFU GIMAP4 (11747438_a_at) / Fold change /veh GIMAP4 (11747438_a_at) / RFU KRT8 (11758183_x_at) / Fold change /veh KRT8 (11758183_x_at) / RFU CNN1 (11734310_a_at) / Fold change /veh CNN1 (11734310_a_at) / RFU VPS37D (11726825_at) / Fold change /veh VPS37D (11726825_at) / RFU C10orf10 (11716522_x_at) / Fold change /veh C10orf10 (11716522_x_at) / RFU KIR2DL2 /// KIR2DL4 /// KIR2DL5A /// KIR2DL5B /// KIR2DS1 /// KIR2DS2 /// KIR2DS3 /// KIR2DS4 /// KIR3DL3 /// KIR3DL3 /// KIR3DS1 (11738374_at) / Fold change /veh KIR2DL2 /// KIR2DL4 /// KIR2DL5A /// KIR2DL5B /// KIR2DS1 /// KIR2DS2 /// KIR2DS3 /// KIR2DS4 /// KIR3DL3 /// KIR3DL3 /// KIR3DS1 (11738374_at) / RFU C1QL1 (11718748_at) / Fold change /veh C1QL1 (11718748_at) / RFU TMPRSS4 (11747572_a_at) / Fold change /veh TMPRSS4 (11747572_a_at) / RFU HAMP (11756126_x_at) / Fold change /veh HAMP (11756126_x_at) / RFU RNFT2 (11725882_a_at) / Fold change /veh RNFT2 (11725882_a_at) / RFU NR4A2 (11747474_a_at) / Fold change /veh NR4A2 (11747474_a_at) / RFU ABCC12 (11746883_a_at) / Fold change /veh ABCC12 (11746883_a_at) / RFU TMEM136 (11760407_x_at) / Fold change /veh TMEM136 (11760407_x_at) / RFU CLDN22 /// WWC2 (11732394_at) / Fold change /veh CLDN22 /// WWC2 (11732394_at) / RFU HLA-DPB1 (11760878_x_at) / Fold change /veh HLA-DPB1 (11760878_x_at) / RFU SPINT1 (11716480_a_at) / Fold change /veh SPINT1 (11716480_a_at) / RFU GAP43 (11754022_s_at) / Fold change /veh GAP43 (11754022_s_at) / RFU A4GNT (11735810_at) / Fold change /veh A4GNT (11735810_at) / RFU PRB3 (11715151_x_at) / Fold change /veh PRB3 (11715151_x_at) / RFU TUBB4B (11761932_at) / Fold change /veh TUBB4B (11761932_at) / RFU CAPN14 (11732068_a_at) / Fold change /veh CAPN14 (11732068_a_at) / RFU TMCC2 (11721928_a_at) / Fold change /veh TMCC2 (11721928_a_at) / RFU IRGQ (11745062_a_at) / Fold change /veh IRGQ (11745062_a_at) / RFU FAM174B (11720279_a_at) / Fold change /veh FAM174B (11720279_a_at) / RFU TMPRSS4 (11748680_a_at) / Fold change /veh TMPRSS4 (11748680_a_at) / RFU FAM212B (11763350_a_at) / Fold change /veh FAM212B (11763350_a_at) / RFU PLEKHG5 (11743358_a_at) / Fold change /veh PLEKHG5 (11743358_a_at) / RFU ZSCAN30 (11745921_a_at) / Fold change /veh ZSCAN30 (11745921_a_at) / RFU CMKLR1 (11741424_a_at) / Fold change /veh CMKLR1 (11741424_a_at) / RFU LOC101060620 /// MAPK8IP1 (11723275_at) / Fold change /veh LOC101060620 /// MAPK8IP1 (11723275_at) / RFU SPTSSB (11747773_x_at) / Fold change /veh SPTSSB (11747773_x_at) / RFU PRSS12 (11739890_at) / Fold change /veh PRSS12 (11739890_at) / RFU BIN1 (11741810_x_at) / Fold change /veh BIN1 (11741810_x_at) / RFU WNT11 (11732464_a_at) / Fold change /veh WNT11 (11732464_a_at) / RFU C10orf10 (11716521_a_at) / Fold change /veh C10orf10 (11716521_a_at) / RFU C5orf56 (11738089_at) / Fold change /veh C5orf56 (11738089_at) / RFU CYB561 (11721691_x_at) / Fold change /veh CYB561 (11721691_x_at) / RFU ANKRD19P (11752326_a_at) / Fold change /veh ANKRD19P (11752326_a_at) / RFU OR2T12 /// OR2T33 /// OR2T8 (11738714_s_at) / Fold change /veh OR2T12 /// OR2T33 /// OR2T8 (11738714_s_at) / RFU VCAN (11748164_a_at) / Fold change /veh VCAN (11748164_a_at) / RFU JSRP1 (11732532_at) / Fold change /veh JSRP1 (11732532_at) / RFU KRTAP10-11 (11738290_x_at) / Fold change /veh KRTAP10-11 (11738290_x_at) / RFU MYO3A (11730013_a_at) / Fold change /veh MYO3A (11730013_a_at) / RFU EBF3 (11725865_a_at) / Fold change /veh EBF3 (11725865_a_at) / RFU CAMK2N1 (11719241_x_at) / Fold change /veh CAMK2N1 (11719241_x_at) / RFU C5orf56 (11738088_a_at) / Fold change /veh C5orf56 (11738088_a_at) / RFU OLFML3 (11715873_a_at) / Fold change /veh OLFML3 (11715873_a_at) / RFU LOC100653217 /// NTM (11731650_a_at) / Fold change /veh LOC100653217 /// NTM (11731650_a_at) / RFU MAPK11 (11762145_a_at) / Fold change /veh MAPK11 (11762145_a_at) / RFU FIZ1 (11724087_x_at) / Fold change /veh FIZ1 (11724087_x_at) / RFU OASL (11726364_x_at) / Fold change /veh OASL (11726364_x_at) / RFU SOX15 (11748057_x_at) / Fold change /veh SOX15 (11748057_x_at) / RFU CD79A (11719716_a_at) / Fold change /veh CD79A (11719716_a_at) / RFU HIST1H1D (11736915_at) / Fold change /veh HIST1H1D (11736915_at) / RFU CASKIN2 (11723855_a_at) / Fold change /veh CASKIN2 (11723855_a_at) / RFU LOC730098 (11760151_x_at) / Fold change /veh LOC730098 (11760151_x_at) / RFU OR4N2 (11742367_at) / Fold change /veh OR4N2 (11742367_at) / RFU PRRT2 (11749266_a_at) / Fold change /veh PRRT2 (11749266_a_at) / RFU SNX32 (11753110_a_at) / Fold change /veh SNX32 (11753110_a_at) / RFU CDHR5 (11726645_a_at) / Fold change /veh CDHR5 (11726645_a_at) / RFU RCAN1 (11760418_a_at) / Fold change /veh RCAN1 (11760418_a_at) / RFU FAM167A (11723789_a_at) / Fold change /veh FAM167A (11723789_a_at) / RFU FAM26E (11764081_at) / Fold change /veh FAM26E (11764081_at) / RFU ISYNA1 (11749810_s_at) / Fold change /veh ISYNA1 (11749810_s_at) / RFU ACY1 (11761880_at) / Fold change /veh ACY1 (11761880_at) / RFU 11764098_at / Fold change /veh 11764098_at / RFU SAMD14 (11745864_x_at) / Fold change /veh SAMD14 (11745864_x_at) / RFU NPB (11741838_a_at) / Fold change /veh NPB (11741838_a_at) / RFU TMPRSS6 (11731388_a_at) / Fold change /veh TMPRSS6 (11731388_a_at) / RFU KRTAP10-2 (11738614_at) / Fold change /veh KRTAP10-2 (11738614_at) / RFU ARHGAP8 /// PRR5-ARHGAP8 (11727945_x_at) / Fold change /veh ARHGAP8 /// PRR5-ARHGAP8 (11727945_x_at) / RFU KRTAP5-7 /// NADSYN1 (11734609_at) / Fold change /veh KRTAP5-7 /// NADSYN1 (11734609_at) / RFU RASL12 (11751679_a_at) / Fold change /veh RASL12 (11751679_a_at) / RFU CDKN2B (11736163_a_at) / Fold change /veh CDKN2B (11736163_a_at) / RFU PRF1 (11729649_at) / Fold change /veh PRF1 (11729649_at) / RFU, ZNF638 /// ZNF638-IT1 / Fold change vs veh, ZNF638 /// ZNF638-IT1 / RFU, PANK3 / Fold change vs veh, PANK3 / RFU, SH3YL1 / Fold change vs veh, SH3YL1 / RFU, ZEB2 / Fold change vs veh, ZEB2 / RFU, NRIP1 / Fold change vs veh, NRIP1 / RFU, PTTG1IP / Fold change vs veh, PTTG1IP / RFU, CAPN2 / Fold change vs veh, CAPN2 / RFU, MED14 / Fold change vs veh, MED14 / RFU, SNORA58 / Fold change vs veh, SNORA58 / RFU, C1orf63 / Fold change vs veh, C1orf63 / RFU, LRRFIP1 / Fold change vs veh, LRRFIP1 / RFU, NDUFAF7 / Fold change vs veh, NDUFAF7 / RFU, SLC12A2 / Fold change vs veh, SLC12A2 / RFU, IBTK / Fold change vs veh, IBTK / RFU, ESF1 / Fold change vs veh, ESF1 / Fold change vs veh, TMEM50B / RFU, TAOK1 / Fold change vs veh, TAOK1 / RFU, ACBD3 / Fold change vs veh, ACBD3 / RFU, TMA16 / Fold change vs veh, TMA16 / RFU, RWDD3 / Fold change vs veh, RWDD3 / RFU, BCAT1 / Fold change vs veh, BCAT1 / RFU, EDEM3 / Fold change vs veh, EDEM3 / RFU, TMEM33 / Fold change vs veh, TMEM33 / RFU, WDR75 / Fold change vs veh, WDR75 / RFU, AHCTF1 / Fold change vs veh, AHCTF1 / RFU, TFRC / Fold change vs veh, TFRC / RFU, ZDHHC17 / Fold change vs veh, ZDHHC17 / RFU, NOM1 / Fold change vs veh, NOM1 / RFU, ARL8B / Fold change vs veh, ARL8B / RFU, ZBTB11 / Fold change vs veh, ZBTB11 / RFU, TAMM41 / Fold change vs veh, TAMM41 / RFU, KIAA1704 /// LOC100996395 / Fold change vs veh, KIAA1704 /// LOC100996395 / RFU, ING1 / Fold change vs veh, ING1 / RFU, TRMT61B / Fold change vs veh, TRMT61B / RFU, FUBP3 / Fold change vs veh, FUBP3 / RFU, TP53 / Fold change vs veh, TP53 / RFU, TNKS2 / Fold change vs veh, TNKS2 / RFU, ZFP14 / Fold change vs veh, ZFP14 / RFU, ACTR2 / Fold change vs veh, ACTR2 / RFU, PPP3R1 / Fold change vs veh, PPP3R1 / RFU, PIK3R1 / Fold change vs veh, PIK3R1 / RFU, HNRNPA1 / Fold change vs veh, HNRNPA1 / RFU, RNF170 / Fold change vs veh, RNF170 / RFU, ZNF28 / Fold change vs veh, ZNF28 / RFU, RNGTT / Fold change vs veh, RNGTT / RFU, OGT / Fold change vs veh, OGT / RFU, BRD1 / Fold change vs veh, BRD1 / RFU, MARS / Fold change vs veh, MARS / RFU, ZNF655 / Fold change vs veh, ZNF655 / RFU, FAHD1 / Fold change vs veh, FAHD1 / RFU, BDP1 / Fold change vs veh, BDP1 / RFU, LRRCC1 / Fold change vs veh, LRRCC1 / RFU, ARID1A / Fold change vs veh, ARID1A / RFU, ZNF146 / Fold change vs veh, ZNF146 / RFU, ZNF330 / Fold change vs veh, ZNF330 / RFU, GPN3 / Fold change vs veh, GPN3 / RFU, C9orf123 / Fold change vs veh, C9orf123 / RFU, N4BP2L2 / Fold change vs veh, N4BP2L2 / RFU, ARFIP1 / Fold change vs veh, ARFIP1 / RFU, FAM179B / Fold change vs veh, FAM179B / RFU, BCL10 / Fold change vs veh, BCL10 / RFU, UHRF1BP1L / Fold change vs veh, UHRF1BP1L / RFU, BET1 / Fold change vs veh, BET1 / RFU, CNOT2 / Fold change vs veh, CNOT2 / RFU, ZNF268 / Fold change vs veh, ZNF268 / Fold change vs veh, ZNF507 / RFU, DGCR2 / Fold change vs veh, DGCR2 / RFU, WDSUB1 / Fold change vs veh, WDSUB1 / Fold change vs veh, HSP90B1 /// MIR3652 / RFU, ADSS / Fold change vs veh, ADSS / RFU, GK / Fold change vs veh, GK / RFU, ZNF148 / Fold change vs veh, ZNF148 / RFU, TAF9 / Fold change vs veh, TAF9 / RFU, SLC1A5 / Fold change vs veh, SLC1A5 / RFU, SLMO2 / Fold change vs veh, SLMO2 / RFU, ABCC4 / Fold change vs veh, ABCC4 / RFU, LOC101060439 /// RAP1B / Fold change vs veh, LOC101060439 /// RAP1B / RFU, RFX7 / Fold change vs veh, RFX7 / RFU, GTPBP10 / Fold change vs veh, GTPBP10 / RFU, CNEP1R1 / Fold change vs veh, CNEP1R1 / RFU, BIVM-ERCC5 /// ERCC5 / Fold change vs veh, BIVM-ERCC5 /// ERCC5 / RFU, ILF3 / Fold change vs veh, ILF3 / RFU 11762660_at / Fold change /veh 11762660_at / RFU VCAN (11757783_s_at) / Fold change /veh VCAN (11757783_s_at) / RFU DDX43 (11728927_at) / Fold change /veh DDX43 (11728927_at) / RFU KRT8 (11758188_x_at) / Fold change /veh KRT8 (11758188_x_at) / RFU NKD1 (11759106_at) / Fold change /veh NKD1 (11759106_at) / RFU SRD5A1 (11742802_a_at) / Fold change /veh SRD5A1 (11742802_a_at) / RFU TPSAB1 /// TPSB2 (11721975_s_at) / Fold change /veh TPSAB1 /// TPSB2 (11721975_s_at) / RFU GSTM3 (11746129_a_at) / Fold change /veh GSTM3 (11746129_a_at) / RFU IL23R (11737362_x_at) / Fold change /veh IL23R (11737362_x_at) / RFU TMEM51 (11727254_a_at) / Fold change /veh TMEM51 (11727254_a_at) / RFU PIWIL2 (11732686_x_at) / Fold change /veh PIWIL2 (11732686_x_at) / RFU ORM1 (11744905_x_at) / Fold change /veh ORM1 (11744905_x_at) / RFU CCDC152 (11743942_at) / Fold change /veh CCDC152 (11743942_at) / RFU ECM1 (11717891_a_at) / Fold change /veh ECM1 (11717891_a_at) / RFU IL23R (11748794_a_at) / Fold change /veh IL23R (11748794_a_at) / RFU TNFAIP8L3 (11732012_x_at) / Fold change /veh TNFAIP8L3 (11732012_x_at) / RFU MBOAT4 (11741988_at) / Fold change /veh MBOAT4 (11741988_at) / RFU 11764193_at / Fold change /veh 11764193_at / RFU TMEM53 (11763286_at) / Fold change /veh TMEM53 (11763286_at) / RFU MAGEB2 (11727129_at) / Fold change /veh MAGEB2 (11727129_at) / RFU TMEM200A (11744735_a_at) / Fold change /veh TMEM200A (11744735_a_at) / RFU CCDC152 (11751479_a_at) / Fold change /veh CCDC152 (11751479_a_at) / RFU FAM211A (11726209_a_at) / Fold change /veh FAM211A (11726209_a_at) / RFU RGS16 (11746705_a_at) / Fold change /veh RGS16 (11746705_a_at) / RFU VCAN (11755009_s_at) / Fold change /veh VCAN (11755009_s_at) / RFU RHOB (11743442_s_at) / Fold change /veh RHOB (11743442_s_at) / RFU RGS16 (11720943_a_at) / Fold change /veh RGS16 (11720943_a_at) / RFU RGS16 (11720944_at) / Fold change /veh RGS16 (11720944_at) / RFU, VPS4B / Fold change vs veh, VPS4B / RFU, CREB1 / Fold change vs veh, CREB1 / RFU, DNAJC13 / Fold change vs veh, DNAJC13 / RFU, GNAQ / Fold change vs veh, GNAQ / RFU, CDK5R1 / Fold change vs veh, CDK5R1 / RFU, ZRANB3 / Fold change vs veh, ZRANB3 / RFU, CUL4A / Fold change vs veh, CUL4A / RFU, CCNY / Fold change vs veh, CCNY / RFU, UFL1 / Fold change vs veh, UFL1 / RFU, COG3 / Fold change vs veh, COG3 / RFU, DIAPH2 / Fold change vs veh, DIAPH2 / RFU, SKA2 / Fold change vs veh, SKA2 / RFU, AFF3 / Fold change vs veh, AFF3 / RFU, LMF1 / Fold change vs veh, LMF1 / RFU, IPO11 / Fold change vs veh, IPO11 / RFU, DFFB / Fold change vs veh, DFFB / RFU, FOXP1 / Fold change vs veh, FOXP1 / RFU, CARD8 / Fold change vs veh, CARD8 / RFU, STRN3 / Fold change vs veh, STRN3 / RFU, ADK / Fold change vs veh, ADK / RFU, RASSF2 / Fold change vs veh, RASSF2 / RFU, WIPF1 / Fold change vs veh, WIPF1 / RFU, LARP1B / Fold change vs veh, LARP1B / RFU, RASA1 / Fold change vs veh, RASA1 / RFU, RB1 / Fold change vs veh, RB1 / RFU, PPFIA1 / Fold change vs veh, PPFIA1 / RFU, MAT2A / Fold change vs veh, MAT2A / RFU, CCT5 / Fold change vs veh, CCT5 / RFU, WDR92 / Fold change vs veh, WDR92 / RFU, CUX1 / Fold change vs veh, CUX1 / RFU, TTC7A / Fold change vs veh, TTC7A / RFU, TMEM135 / Fold change vs veh, TMEM135 / RFU, DEPTOR / Fold change vs veh, DEPTOR / RFU, CPM / Fold change vs veh, CPM / RFU, DNAJB6 / Fold change vs veh, DNAJB6 / RFU, CACNA2D3 / Fold change vs veh, CACNA2D3 / RFU, DTX4 / Fold change vs veh, DTX4 / RFU, TFCP2 / Fold change vs veh, TFCP2 / RFU, GMCL1 /// GMCL1P1 / Fold change vs veh, GMCL1 /// GMCL1P1 / RFU, AEBP2 / Fold change vs veh, AEBP2 / RFU, SNHG1 /// SNORD22 /// SNORD25 /// SNORD26 /// SNORD27 /// SNORD28 /// SNORD29 /// SNORD31 / Fold change vs veh, SNHG1 /// SNORD22 /// SNORD25 /// SNORD26 /// SNORD27 /// SNORD28 /// SNORD29 /// SNORD31 / Fold change (Aza/veh), C12orf56 (ProbeSet 11735607_a_at) / Fold change (ACY-1035/veh), C12orf56 (ProbeSet 11735607_a_at) / Fold change (Aza/veh), FGFR1OP (ProbeSet 11751329_s_at) / Fold change (ACY-1035/veh), FGFR1OP (ProbeSet 11751329_s_at) / Fold change (Aza/veh), VPS36 (ProbeSet 11739960_a_at) / Fold change (ACY-1035/veh), VPS36 (ProbeSet 11739960_a_at) / RFU SYPL1 (11715823_x_at) / Fold change /veh SYPL1 (11715823_x_at) / RFU IGFBP7 (11715501_s_at) / Fold change /veh IGFBP7 (11715501_s_at) / RFU REEP3 (11722064_at) / Fold change /veh REEP3 (11722064_at) / RFU IGLL1 (11728026_x_at) / Fold change /veh IGLL1 (11728026_x_at): dose or concentration left out as unconfirmed
Details: ProbeSet 11740781_a_at; LIST B

In the case of `Nc1ccc(-c2cccs2)cc1NC(=O)c1ccc2c(c1)cc(C1CC1)n2CCN1CCOCC1` [ACY-1035], the “RFU, ILF3” value is reported as 238.85 RFU.
